Measured values published in patent US9730940B2, “Purine inhibitors of human phosphatidylinositol 3-kinase delta” (priority 2012, dated 2017).

The compounds below were run against PI3K-alpha (Homo sapiens (Human), UniProt P42336) (assay: HTRF PI3K biochemical assay, alpha isoform). Details: ratio PI3K-alpha IC50 value/PI3K-delta IC50 value.
Sequence of PI3K-alpha (P42336 whole entry, looked up, canonical isoform): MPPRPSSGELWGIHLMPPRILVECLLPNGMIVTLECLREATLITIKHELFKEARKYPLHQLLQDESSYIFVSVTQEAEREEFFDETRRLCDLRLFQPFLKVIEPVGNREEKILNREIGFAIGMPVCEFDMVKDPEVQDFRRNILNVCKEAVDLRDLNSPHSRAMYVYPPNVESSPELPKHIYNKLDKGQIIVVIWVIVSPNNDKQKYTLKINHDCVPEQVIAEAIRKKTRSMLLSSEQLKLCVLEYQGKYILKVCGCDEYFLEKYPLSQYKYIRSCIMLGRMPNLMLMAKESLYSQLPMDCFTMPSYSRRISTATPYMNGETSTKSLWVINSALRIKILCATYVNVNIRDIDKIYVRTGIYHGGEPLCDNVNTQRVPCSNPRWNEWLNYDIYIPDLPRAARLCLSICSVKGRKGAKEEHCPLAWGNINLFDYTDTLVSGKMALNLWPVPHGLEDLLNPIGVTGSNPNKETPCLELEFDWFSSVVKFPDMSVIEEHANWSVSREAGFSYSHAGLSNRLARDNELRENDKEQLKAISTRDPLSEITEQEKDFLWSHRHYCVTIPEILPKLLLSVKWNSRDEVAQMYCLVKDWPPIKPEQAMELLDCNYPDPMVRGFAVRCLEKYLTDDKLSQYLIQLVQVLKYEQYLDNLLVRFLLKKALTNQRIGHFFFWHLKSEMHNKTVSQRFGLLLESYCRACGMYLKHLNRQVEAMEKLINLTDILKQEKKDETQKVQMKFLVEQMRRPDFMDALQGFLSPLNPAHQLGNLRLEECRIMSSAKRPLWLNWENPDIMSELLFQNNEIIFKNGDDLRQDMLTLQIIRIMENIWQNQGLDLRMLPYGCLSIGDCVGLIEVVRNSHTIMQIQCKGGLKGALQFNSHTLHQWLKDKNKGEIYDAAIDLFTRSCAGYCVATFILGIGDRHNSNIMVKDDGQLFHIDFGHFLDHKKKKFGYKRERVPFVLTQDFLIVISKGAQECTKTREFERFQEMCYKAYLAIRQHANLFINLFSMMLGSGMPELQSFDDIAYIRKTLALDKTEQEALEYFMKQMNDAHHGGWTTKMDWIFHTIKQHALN
Sequence of PI3K-alpha (P27986 whole entry partner, looked up, canonical isoform): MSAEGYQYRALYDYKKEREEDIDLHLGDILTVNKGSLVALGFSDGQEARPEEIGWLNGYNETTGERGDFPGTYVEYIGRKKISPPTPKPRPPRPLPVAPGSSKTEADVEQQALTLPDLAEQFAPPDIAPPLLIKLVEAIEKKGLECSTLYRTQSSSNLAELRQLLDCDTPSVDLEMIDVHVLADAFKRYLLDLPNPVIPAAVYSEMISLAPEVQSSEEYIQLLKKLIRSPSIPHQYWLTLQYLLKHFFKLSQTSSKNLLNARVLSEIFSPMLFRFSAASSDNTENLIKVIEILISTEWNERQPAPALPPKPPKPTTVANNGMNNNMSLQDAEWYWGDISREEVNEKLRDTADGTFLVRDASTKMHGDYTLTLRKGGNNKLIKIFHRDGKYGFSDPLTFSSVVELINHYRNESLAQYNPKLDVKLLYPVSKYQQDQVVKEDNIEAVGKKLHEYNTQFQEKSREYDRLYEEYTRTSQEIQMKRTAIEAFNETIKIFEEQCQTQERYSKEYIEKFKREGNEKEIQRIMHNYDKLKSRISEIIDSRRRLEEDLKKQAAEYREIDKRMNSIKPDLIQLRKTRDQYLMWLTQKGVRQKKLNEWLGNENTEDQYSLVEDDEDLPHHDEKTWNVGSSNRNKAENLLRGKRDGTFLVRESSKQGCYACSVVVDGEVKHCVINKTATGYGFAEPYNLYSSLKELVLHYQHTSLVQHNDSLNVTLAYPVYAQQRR

Compound | Relative Selectivity versus PI3Kalpha
CCn1c(-c2cnc(C)nc2)nc2c(O[C@H]3CC[C@@H](NC(=O)C4CC4)CC3)ncnc21 [Compound 9-8, N-(cis-4-{[9-ethyl-8-(2-methylpyrimidin-5-yl)-9H-purin-6-yl]oxy}cyclohexyl)cyclopropane carboxamide] | >10
CCn1c(-c2cnc(C)nc2)nc2c(O[C@H]3C[C@H](NS(=O)(=O)CC)C3)ncnc21 [Compound 9-10, trans-N-(3-{[9-ethyl-8-(2-methylpyrimidin-5-yl)-9H-purin-6-yl]oxy}cyclobutyl) ethanesulfonamide] | >10
CCn1ncc(-c2nc3c(S[C@H]4CCN(C(=O)OC(C)(C)C)C4)ncnc3n2C)c1C [Compound 10-1, (S)-tert-butyl 3-((8-(1-ethyl-5-methyl-1H-pyrazol-4-yl)-9-methyl-9H-purin-6-yl)thio)pyrrolidine-1-carboxylate] | >10
CCn1ncc(-c2nc3c(S(=O)(=O)[C@H]4CCN(C(=O)OC(C)(C)C)C4)ncnc3n2C)c1C [Compound 10-2, (S)-tert-butyl 3-((8-(1-ethyl-5-methyl-1H-pyrazol-4-yl)-9-methyl-9H-purin-6-yl)sulfonyl)pyrrolidine-1-carboxylate] | 8
CCn1ncc(-c2nc3c(S[C@H]4CCN(C(=O)C5CCOCC5)C4)ncnc3n2C)c1C [Compound 10-3, (S)-(3-((8-(1-ethyl-5-methyl-1H-pyrazol-4-yl)-9-methyl-9H-purin-6-yl)thio)pyrrolidin-1-yl)(tetrahydro-2H-pyran-4-yl)methanone] | >10
CCC(=O)N1CC[C@H](Sc2ncnc3c2nc(-c2cnn(CC)c2C)n3C)C1 [Compound 10-4, (S)-1-(3-((8-(1-ethyl-5-methyl-1H-pyrazol-4-yl)-9-methyl-9H-purin-6-yl)thio)pyrrolidin-1-yl)propan-1-one] | >10
CCn1ncc(-c2nc3c(S(=O)(=O)[C@H]4CCN(C(=O)C5CCOCC5)C4)ncnc3n2C)c1C [Compound 10-5, (S)-(3-((8-(1-ethyl-5-methyl-1H-pyrazol-4-yl)-9-methyl-9H-purin-6-yl)sulfonyl)pyrrolidin-1-yl)(tetrahydro-2H-pyran-4-yl)methanone] | 5
CCC(=O)N1CC[C@H](S(=O)(=O)c2ncnc3c2nc(-c2cnn(CC)c2C)n3C)C1 [Compound 10-6, (S)-1-(3-((8-(1-ethyl-5-methyl-1H-pyrazol-4-yl)-9-methyl-9H-purin-6-yl)sulfonyl)pyrrolidin-1-yl)propan-1-one] | 5
CCn1ncc(-c2nc3c(S[C@H]4CCN(C(=O)C5CC5)C4)ncnc3n2C)c1C [Compound 10-7, (S)-cyclopropyl(3-((8-(1-ethyl-5-methyl-1H-pyrazol-4-yl)-9-methyl-9H-purin-6-yl)thio)pyrrolidin-1-yl)methanone] | >10
CCOC(=O)N1CC[C@H](Sc2ncnc3c2nc(-c2cnn(CC)c2C)n3C)C1 [Compound 10-8, (S)-ethyl 3-((8-(1-ethyl-5-methyl-1H-pyrazol-4-yl)-9-methyl-9H-purin-6-yl)thio)pyrrolidine-1-carboxylate] | >10
CCn1ncc(-c2nc3c(S[C@H]4CCN(C(=O)OCC(C)C)C4)ncnc3n2C)c1C [Compound 10-9, (S)-isobutyl 3-((8-(1-ethyl-5-methyl-1H-pyrazol-4-yl)-9-methyl-9H-purin-6-yl)thio)pyrrolidine-1-carboxylate] | >10
CCn1ncc(-c2nc3c(S[C@H]4CCN(C(=O)c5ccn(C)n5)C4)ncnc3n2C)c1C [Compound 10-10, (S)-(3-((8-(1-ethyl-5-methyl-1H-pyrazol-4-yl)-9-methyl-9H-purin-6-yl)thio)pyrrolidin-1-yl)(1-methyl-1H-pyrazol-3-yl)methanone] | >10
